Test results as given in the supplement of paper PMC10307832.

Legend:
Experiment in all cases: relative viability (nuclei count vs DMSO), 5 days (fraction); higher = more cells survive
UMC-11 = system: UMC-11
Procedure, shortened: (§1)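 Relative viability was taken as the ratio of nuclei in treated wells to nuclei in vehicle wells. Lung cancer cell lines in 1536-well plates received compounds by pin tool one day after seeding, either one drug alone or a fixed anchor-drug dose plus five library-drug doses (not always all listed) in √10 steps. Nuclei were counted on 4× images after 5 days of treatment, and values are medians of duplicate plates.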

NCI-H650 = system: NCI-H650
Procedure, shortened: as §1

A-427 = system: A-427
Procedure, shortened: as §1

PC-3 [JPC-3] = system: PC-3 [JPC-3]
Procedure, shortened: as §1

NCI-H2405 = system: NCI-H2405
Procedure, shortened: as §1

NCI-H1975 = system: NCI-H1975
Procedure, shortened: as §1

NCI-H460 = system: NCI-H460
Procedure, shortened: as §1

NCI-H3122 = system: NCI-H3122
Procedure, shortened: as §1

SK-LU-1 = system: SK-LU-1
Procedure, shortened: as §1

NCI-H1755 = system: NCI-H1755
Procedure, shortened: as §1

NCI-H1915 = system: NCI-H1915
Procedure, shortened: as §1

NCI-H441 = system: NCI-H441
Procedure, shortened: as §1

NCI-H1793 = system: NCI-H1793
Procedure, shortened: as §1

NCI-H2023 = system: NCI-H2023
Procedure, shortened: as §1

H3255 = system: H3255
Procedure, shortened: as §1

HCC-15 = system: HCC-15
Procedure, shortened: as §1

NCI-H1437 = system: NCI-H1437
Procedure, shortened: as §1

NCI-H2009 = system: NCI-H2009
Procedure, shortened: as §1

LXF-289 = system: LXF-289
Procedure, shortened: as §1

HCC-366 = system: HCC-366
Procedure, shortened: as §1

NCI-H596 = system: NCI-H596
Procedure, shortened: as §1

PC-14 = system: PC-14
Procedure, shortened: as §1

HARA = system: HARA
Procedure, shortened: as §1

## O=c1[nH]c2ccccc2n1C1CCN(CCCC(c2ccc(F)cc2)c2ccc(F)cc2)CC1 [Pimozide] + Cc1nc(Nc2ncc(C(=O)Nc3c(C)cccc3Cl)s2)cc(N2CCN(CCO)CC2)n1 [Dasatinib] (partner 0.075 µM)
UMC-11; first compound 0.08 µM
  relative viability: 0.46
UMC-11; first compound 0.253 µM
  relative viability: 0.45
UMC-11; first compound 0.8 µM
  relative viability: 0.468
UMC-11; first compound 2.53 µM
  relative viability: 0.431
UMC-11; first compound 8 µM
  relative viability: 0.424
NCI-H650; first compound 0.08 µM
  relative viability: 0.501
NCI-H650; first compound 0.253 µM
  relative viability: 0.454
NCI-H650; first compound 0.8 µM
  relative viability: 0.453
NCI-H650; first compound 2.53 µM
  relative viability: 0.487
NCI-H650; first compound 8 µM
  relative viability: 0.498
A-427; first compound 0.08 µM
  relative viability: 0.697
A-427; first compound 0.253 µM
  relative viability: 0.701
A-427; first compound 0.8 µM
  relative viability: 0.681
A-427; first compound 2.53 µM
  relative viability: 0.654
A-427; first compound 8 µM
  relative viability: 0.665
PC-3 [JPC-3]; first compound 0.08 µM
  relative viability: 0.529
PC-3 [JPC-3]; first compound 0.253 µM
  relative viability: 0.912
PC-3 [JPC-3]; first compound 0.8 µM
  relative viability: 0.867
PC-3 [JPC-3]; first compound 2.53 µM
  relative viability: 0.892
PC-3 [JPC-3]; first compound 8 µM
  relative viability: 0.897
NCI-H2405; first compound 0.08 µM
  relative viability: 0.219
NCI-H2405; first compound 0.253 µM
  relative viability: 0.228
NCI-H2405; first compound 0.8 µM
  relative viability: 0.198
NCI-H2405; first compound 2.53 µM
  relative viability: 0.187
NCI-H2405; first compound 8 µM
  relative viability: 0.188
NCI-H1975; first compound 0.08 µM
  relative viability: 0.415
NCI-H1975; first compound 0.253 µM
  relative viability: 0.342
NCI-H1975; first compound 0.8 µM
  relative viability: 0.345
NCI-H1975; first compound 2.53 µM
  relative viability: 0.346
NCI-H1975; first compound 8 µM
  relative viability: 0.294
NCI-H460; first compound 0.08 µM
  relative viability: 0.537
NCI-H460; first compound 0.253 µM
  relative viability: 0.486
NCI-H460; first compound 0.8 µM
  relative viability: 0.529
NCI-H460; first compound 2.53 µM
  relative viability: 0.483
NCI-H460; first compound 8 µM
  relative viability: 0.447
NCI-H3122; first compound 0.08 µM
  relative viability: 0.885
NCI-H3122; first compound 0.253 µM
  relative viability: 0.861
NCI-H3122; first compound 0.8 µM
  relative viability: 0.385
NCI-H3122; first compound 2.53 µM
  relative viability: 0.851
NCI-H3122; first compound 8 µM
  relative viability: 0.688
SK-LU-1; first compound 0.08 µM
  relative viability: 0.2
SK-LU-1; first compound 0.253 µM
  relative viability: 0.21
SK-LU-1; first compound 0.8 µM
  relative viability: 0.184
SK-LU-1; first compound 2.53 µM
  relative viability: 0.186
SK-LU-1; first compound 8 µM
  relative viability: 0.168
NCI-H1755; first compound 0.08 µM
  relative viability: 0.372
NCI-H1755; first compound 0.253 µM
  relative viability: 0.446
NCI-H1755; first compound 0.8 µM
  relative viability: 0.426
NCI-H1755; first compound 2.53 µM
  relative viability: 0.456
NCI-H1755; first compound 8 µM
  relative viability: 0.348
NCI-H1915; first compound 0.08 µM
  relative viability: 0.328
NCI-H1915; first compound 0.253 µM
  relative viability: 0.246
NCI-H1915; first compound 0.8 µM
  relative viability: 0.214
NCI-H1915; first compound 2.53 µM
  relative viability: 0.322
NCI-H1915; first compound 8 µM
  relative viability: 0.303
NCI-H441; first compound 0.08 µM
  relative viability: 0.86
NCI-H441; first compound 0.253 µM
  relative viability: 0.724
NCI-H441; first compound 0.8 µM
  relative viability: 0.605
NCI-H441; first compound 2.53 µM
  relative viability: 0.387
NCI-H441; first compound 8 µM
  relative viability: 0.521
NCI-H1793; first compound 0.253 µM
  relative viability: 0.388
NCI-H1793; first compound 0.8 µM
  relative viability: 0.343
NCI-H1793; first compound 2.53 µM
  relative viability: 0.391
NCI-H1793; first compound 8 µM
  relative viability: 0.35
NCI-H2023; first compound 0.08 µM
  relative viability: 0.497
NCI-H2023; first compound 0.253 µM
  relative viability: 0.547
NCI-H2023; first compound 0.8 µM
  relative viability: 0.518
NCI-H2023; first compound 2.53 µM
  relative viability: 0.438
NCI-H2023; first compound 8 µM
  relative viability: 0.451
H3255; first compound 0.253 µM
  relative viability: 0.355
H3255; first compound 0.8 µM
  relative viability: 0.51
H3255; first compound 2.53 µM
  relative viability: 0.446
H3255; first compound 8 µM
  relative viability: 0.323
HCC-15; first compound 0.08 µM
  relative viability: 0.651
HCC-15; first compound 0.253 µM
  relative viability: 0.577
HCC-15; first compound 0.8 µM
  relative viability: 0.551
HCC-15; first compound 2.53 µM
  relative viability: 0.565
HCC-15; first compound 8 µM
  relative viability: 0.495
NCI-H1437; first compound 0.08 µM
  relative viability: 0.483
NCI-H1437; first compound 0.253 µM
  relative viability: 0.43
NCI-H1437; first compound 0.8 µM
  relative viability: 0.402
NCI-H1437; first compound 2.53 µM
  relative viability: 0.289
NCI-H1437; first compound 8 µM
  relative viability: 0.249
NCI-H2009; first compound 0.08 µM
  relative viability: 0.307
NCI-H2009; first compound 0.253 µM
  relative viability: 0.326
NCI-H2009; first compound 0.8 µM
  relative viability: 0.328
NCI-H2009; first compound 2.53 µM
  relative viability: 0.214
NCI-H2009; first compound 8 µM
  relative viability: 0.188
LXF-289; first compound 0.08 µM
  relative viability: 0.236
LXF-289; first compound 0.253 µM
  relative viability: 0.277
LXF-289; first compound 0.8 µM
  relative viability: 0.241
LXF-289; first compound 2.53 µM
  relative viability: 0.205
LXF-289; first compound 8 µM
  relative viability: 0.226
HCC-366; first compound 0.08 µM
  relative viability: 0.613
HCC-366; first compound 0.253 µM
  relative viability: 0.644
HCC-366; first compound 0.8 µM
  relative viability: 0.625
HCC-366; first compound 2.53 µM
  relative viability: 0.615
HCC-366; first compound 8 µM
  relative viability: 0.714
NCI-H596; first compound 0.08 µM
  relative viability: 0.565
NCI-H596; first compound 0.253 µM
  relative viability: 0.572
NCI-H596; first compound 0.8 µM
  relative viability: 0.624
NCI-H596; first compound 2.53 µM
  relative viability: 0.553
NCI-H596; first compound 8 µM
  relative viability: 0.662
PC-14; first compound 0.08 µM
  relative viability: 0.027
PC-14; first compound 0.253 µM
  relative viability: 0.241
PC-14; first compound 0.8 µM
  relative viability: 0.272
PC-14; first compound 2.53 µM
  relative viability: 0.306
PC-14; first compound 8 µM
  relative viability: 0.18
HARA; first compound 0.253 µM
  relative viability: 0.262
HARA; first compound 0.8 µM
  relative viability: 0.275
HARA; first compound 2.53 µM
  relative viability: 0.247
HARA; first compound 8 µM
  relative viability: 0.304
